The record followed here is US10093678B2, “Azaspiro derivatives as TRPM8 antagonists” (RaQualia Pharma Inc., priority 2014, dated 2018).

Molecules are shown by their SMILES. Where only a bound is given, the exact number is not on record here.

For the assay, the target named is T1, human TRPM8 (Homo sapiens, UniProt Q7Z2W7).
T1 construct: expressed in transfected cells; host or cells: HEK293
T1 sequence (Q7Z2W7 whole entry): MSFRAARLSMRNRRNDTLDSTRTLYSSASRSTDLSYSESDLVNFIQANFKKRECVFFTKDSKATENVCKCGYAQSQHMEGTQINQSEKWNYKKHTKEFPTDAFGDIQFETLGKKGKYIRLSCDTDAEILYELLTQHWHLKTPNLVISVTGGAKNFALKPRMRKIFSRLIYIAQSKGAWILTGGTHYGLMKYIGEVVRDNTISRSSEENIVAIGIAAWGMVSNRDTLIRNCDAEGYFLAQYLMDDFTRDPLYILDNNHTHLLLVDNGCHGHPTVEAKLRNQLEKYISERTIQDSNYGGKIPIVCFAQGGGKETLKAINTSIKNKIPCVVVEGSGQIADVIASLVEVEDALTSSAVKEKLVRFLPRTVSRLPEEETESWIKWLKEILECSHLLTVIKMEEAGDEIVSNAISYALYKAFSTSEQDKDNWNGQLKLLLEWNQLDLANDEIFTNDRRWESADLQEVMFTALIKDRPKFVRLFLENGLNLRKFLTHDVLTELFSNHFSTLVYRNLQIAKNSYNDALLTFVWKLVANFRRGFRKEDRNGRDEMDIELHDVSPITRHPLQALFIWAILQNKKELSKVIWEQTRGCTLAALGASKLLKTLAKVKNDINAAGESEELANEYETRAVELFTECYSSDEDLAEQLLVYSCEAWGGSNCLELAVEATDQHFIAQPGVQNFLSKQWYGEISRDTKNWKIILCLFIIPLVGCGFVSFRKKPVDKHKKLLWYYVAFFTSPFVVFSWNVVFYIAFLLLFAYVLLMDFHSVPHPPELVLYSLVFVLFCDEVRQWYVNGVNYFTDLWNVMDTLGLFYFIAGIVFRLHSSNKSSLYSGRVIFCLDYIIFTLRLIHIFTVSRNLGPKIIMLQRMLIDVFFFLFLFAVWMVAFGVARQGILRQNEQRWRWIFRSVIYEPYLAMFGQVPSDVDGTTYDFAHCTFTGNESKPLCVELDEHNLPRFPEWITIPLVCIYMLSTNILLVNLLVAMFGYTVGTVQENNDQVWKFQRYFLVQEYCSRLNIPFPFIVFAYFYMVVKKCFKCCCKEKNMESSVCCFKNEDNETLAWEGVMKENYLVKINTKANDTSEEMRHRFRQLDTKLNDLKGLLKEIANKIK
Nature of the assay: Menthol-induced Ca2+ influx in HEK293 cells stably expressing human TRPM8. Particulars: 30 microM menthol-induced Ca2+ influx, read-out: IC50 against TRPM8. The class given is cell-based. Summed up:
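HEK293 cells stably expressing human TRPM8 were loaded with Fluo4-AM for 1 h at room temperature, preincubated 5 min with compound, then challenged with 30 microM menthol. Calcium rise was read by FDSS imaging. IC50 came from 11-point curves using duplicate-well means.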
For `Cc1nc(C(=O)CN2C(=O)NC3(CCC(F)(F)CC3)C2=O)sc1-c1cccc(C#N)c1` [Example 18-3], the IC50 is less than 100 nM.

Regarding `Cc1nc(C(=O)CN2C(=O)NC3(CCC(F)(F)CC3)C2=O)sc1-c1ccccc1CO` [Example 18-4], the half-inhibitory concentration (IC50) is less than 100 nM.

Turning to `Cc1nc(C(=O)CN2C(=O)NC3(CCC(F)(F)CC3)C2=O)sc1-c1cccc(F)c1` [Example 18-5], the concentration for half-maximal inhibition (IC50) is less than 100 nM.

On to `Cc1nc(C(=O)CN2C(=O)NC3(CCC(F)(F)CC3)C2=O)sc1-c1ccccc1C#N` [Example 18-6], for which the 50% inhibitory concentration (IC50) is less than 100 nM.

Consider `Cc1nc(C(=O)CN2C(=O)NC3(CCC(F)(F)CC3)C2=O)sc1-c1cccc(C(N)=O)c1` [Example 18-7], for which the 50% inhibitory concentration (IC50) is less than 500 nM.

For `Cc1ncccc1-c1sc(C(=O)CN2C(=O)NC3(CCC(F)(F)CC3)C2=O)nc1C` [Example 18-8], the IC50 was less than 500 nM.

With `Cc1nc(C(=O)CN2C(=O)NC3(CCC(F)(F)CC3)C2=O)sc1-c1cncc(F)c1` [Example 18-9], the 50% inhibitory concentration (IC50) is less than 100 nM.

For the compound `Cc1nc(C(=O)CN2C(=O)NC3(CCC(F)(F)CC3)C2=O)sc1-c1cccc2ccncc12` [Example 18-10], the IC50 is less than 100 nM.

As for `Cc1nc(C(=O)CN2C(=O)NC3(CCC(F)(F)CC3)C2=O)sc1-c1cc(F)cc(F)c1` [Example 18-11], the IC50 is less than 100 nM.

In the case of `Cc1nc(C(=O)CN2C(=O)NC3(CCC(F)(F)CC3)C2=O)sc1-c1cccc2c1CNC2=O` [Example 18-12], the IC50 is less than 500 nM.

Consider `Cc1nc(C(=O)CN2C(=O)NC3(CCC(F)(F)CC3)C2=O)sc1-c1cncc(C#N)c1` [Example 18-13], for which the IC50 is less than 500 nM.

Regarding `Cc1cccc(N(C)c2ccc(C(=O)CN3C(=O)NC4(CCCCC4)C3=O)cn2)c1` [Example 19-1, 3-(2-(6-(methyl(m-tolyl)amino)pyridin-3-yl)-2-oxoethyl)-1,3-diazaspiro[4.5]decane-2,4-dione], the IC50 was less than 100 nM.

Regarding `CN(c1ccccn1)c1ccc(C(=O)CN2C(=O)NC3(CCCCC3)C2=O)cn1` [Example 19-2], the IC50 is less than 100 nM.

Regarding `CCN(c1ccccc1)c1ccc(C(=O)CN2C(=O)NC3(CCCCC3)C2=O)cn1` [Example 19-3], the IC50 is less than 100 nM.

In the case of `CN(c1cccnc1)c1ccc(C(=O)CN2C(=O)NC3(CCCCC3)C2=O)cn1` [Example 19-4], the IC50 is less than 100 nM.

On to `CN(c1ccccc1)c1ccc(C(=O)CN2C(=O)NC3(CCCCC3)C2=O)cn1` [Example 19-5], for which the IC50 is less than 100 nM.

On to `CN(c1ccccn1)c1ccc(C(=O)CN2C(=O)NC3(CCC(F)(F)CC3)C2=O)cn1` [Example 19-6], for which the IC50 is less than 100 nM.

In the case of `O=C(CN1C(=O)NC2(CCC(F)(F)CC2)C1=O)c1ccc(N2CCOc3ccccc32)nc1` [Example 19-7], the half-maximal inhibitory concentration (IC50) is less than 100 nM.

Take `O=C(CN1C(=O)NC2(CCC(F)(F)CC2)C1=O)c1ccc(-n2ccc3ccncc32)nc1` [Example 19-8]: the IC50 is less than 100 nM.

Regarding `CN(c1ccccc1)c1ccc(C(=O)CN2C(=O)NC3(CCC(F)(F)CC3)C2=O)cn1` [Example 19-9], the IC50 was less than 100 nM.

For `O=C(CN1C(=O)NC2(CCC(F)(F)CC2)C1=O)c1ccc(-n2ccc3cccnc32)nc1` [Example 19-10], the IC50 was less than 100 nM.

With `O=C(CN1C(=O)NC2(CCC(F)(F)CC2)C1=O)c1ccc(N2CCCc3ccccc32)nc1` [Example 19-11], the IC50 is less than 100 nM.

Regarding `Cc1cc2ccccc2n1-c1ccc(C(=O)CN2C(=O)NC3(CCC(F)(F)CC3)C2=O)cn1` [Example 19-12], the half-inhibitory concentration (IC50) is less than 100 nM.

As to `O=C(CN1C(=O)NC2(CCC(F)(F)CC2)C1=O)c1ccc(N2C(=O)COc3ccccc32)nc1` [Example 19-13], the IC50 is less than 100 nM.

`O=C(CN1C(=O)NC2(CCC(F)(F)CC2)C1=O)c1ccc(-n2c(=O)oc3ccccc32)nc1` [Example 19-14]: the half-inhibitory concentration (IC50) was less than 10 nM.

Take `CN(c1cccc(C(F)(F)F)c1)c1ccc(C(=O)CN2C(=O)NC3(CCC(F)(F)CC3)C2=O)cn1` [Example 19-15]: the half-inhibitory concentration (IC50) is less than 500 nM.

Take `CN(c1ccc(C(=O)CN2C(=O)NC3(CCC(F)(F)CC3)C2=O)cc1)c1ccccn1` [Example 19-16]: the IC50 was less than 100 nM.

Turning to `O=C(CN1C(=O)NC2(CCC(F)(F)CC2)C1=O)c1ccc(-n2ccc3cccnc32)cc1` [Example 19-17], the IC50 was less than 100 nM.

On to `O=C(CN1C(=O)NC2(CCC(F)(F)CC2)C1=O)c1ccc(-n2ccc3ccccc32)cc1` [Example 19-18], for which the IC50 was less than 100 nM.

For `Cc1cc2ccccc2n1-c1ccc(C(=O)CN2C(=O)NC3(CCC(F)(F)CC3)C2=O)cc1` [Example 19-19], the concentration for half-maximal inhibition (IC50) was less than 500 nM.

As for `O=C(CN1C(=O)NC2(CCC(F)(F)CC2)C1=O)c1ccc(N2CCOc3ccccc32)cc1` [Example 19-20], the IC50 was less than 100 nM.

As to `O=C(CN1C(=O)NC2(CCC(F)(F)CC2)C1=O)c1ccc(N2C(=O)COc3ccccc32)cc1` [Example 19-21], the IC50 is less than 100 nM.

With `O=C(CN1C(=O)NC2(CCC(F)(F)CC2)C1=O)c1ccc(-n2c(=O)[nH]c3ccccc32)cc1` [Example 19-22], the IC50 is less than 100 nM.

As to `Cn1c(=O)n(-c2ccc(C(=O)CN3C(=O)NC4(CCC(F)(F)CC4)C3=O)cc2)c2ccccc21` [Example 19-23], the IC50 is less than 100 nM.

As to `O=C(CN1C(=O)NC2(CCC(F)(F)CC2)C1=O)c1cnc(-n2cnc3ccccc32)cn1` [Example 19-24], the IC50 was less than 100 nM.

As to `O=C(CN1C(=O)NC2(CCC(F)(F)CC2)C1=O)c1cnc(N2C(=O)COc3ccccc32)cn1` [Example 19-25], the IC50 was less than 100 nM.

For `O=C(CN1C(=O)NC2(CCC(F)(F)CC2)C1=O)c1ccc(N2C(=O)Cc3ccccc32)cc1` [Example 19-26], the 50% inhibitory concentration (IC50) was less than 100 nM.

On to `O=C(CN1C(=O)NC2(CCC(F)(F)CC2)C1=O)c1ccc(N2C(=O)CCc3ccccc32)cc1` [Example 19-27], for which the half-maximal inhibitory concentration (IC50) is less than 500 nM.

For the compound `O=C(CN1C(=O)NC2(CCC(F)(F)CC2)C1=O)c1ccc(-n2c(=O)oc3ccccc32)cc1` [Example 19-30], the 50% inhibitory concentration (IC50) was less than 10 nM.

For the compound `Cc1nc2ccccc2n1-c1cnc(C(=O)CN2C(=O)NC3(CCC(F)(F)CC3)C2=O)cn1` [Example 19-33], the IC50 is less than 10 nM.

Turning to `O=C(CN1C(=O)NC2(CCC(F)(F)CC2)C1=O)c1ccc(-n2cnc3cncnc32)cc1` [Example 19-34], the half-maximal inhibitory concentration (IC50) is less than 500 nM.

For the compound `O=C(CN1C(=O)NC2(CCC(F)(F)CC2)C1=O)c1ccc(-n2cnc3ncncc32)cc1` [Example 19-35], the half-maximal inhibitory concentration (IC50) is less than 500 nM.

On to `O=C(CN1C(=O)NC2(CCC(F)(F)CC2)C1=O)c1ccc(-n2cnc3nccnc32)cc1` [Example 19-37], for which the half-maximal inhibitory concentration (IC50) is less than 100 nM.

Turning to `Cc1nc2nccnc2n1-c1ccc(C(=O)CN2C(=O)NC3(CCC(F)(F)CC3)C2=O)cc1` [Example 19-39], the IC50 was less than 500 nM.

As to `O=C(CN1C(=O)NC2(CCCCC2)C1=O)c1ccc(Oc2cccc(Cl)c2)nc1` [Example 20-1, 3-(2-(6-(3-chlorophenoxy)pyridin-3-yl)-2-oxoethyl)-1,3-diazaspiro[4.5]decane-2,4-dione], the concentration for half-maximal inhibition (IC50) is less than 100 nM.

With `O=C(CN1C(=O)NC2(CCCCC2)C1=O)c1ccc(Oc2cccnc2)nc1` [Example 20-2], the IC50 was less than 500 nM.

Take `Cc1cccc(Oc2ccc(C(=O)CN3C(=O)NC4(CCCCC4)C3=O)cn2)c1` [Example 20-3]: the half-inhibitory concentration (IC50) is less than 500 nM.

With `O=C(CN1C(=O)NC2(CCCCC2)C1=O)c1ccc(OCCNc2ccccc2)nc1` [Example 20-4], the IC50 is less than 500 nM.

For the compound `O=C(CN1C(=O)NC2(CCCCC2)C1=O)c1ccc(Oc2ccccc2Cl)nc1` [Example 20-5], the IC50 is less than 500 nM.

Turning to `O=C(CN1C(=O)NC2(CCC(F)(F)CC2)C1=O)c1ccc(Oc2ccccn2)nc1` [Example 20-6], the IC50 is less than 100 nM.

Consider `N#Cc1cccc(Oc2ccc(C(=O)CN3C(=O)NC4(CCC(F)(F)CC4)C3=O)cn2)c1` [Example 20-7], for which the half-inhibitory concentration (IC50) was less than 100 nM.

Turning to `O=C(CN1C(=O)NC2(CCC(F)(F)CC2)C1=O)c1ccc(Oc2cccc(Cl)c2)nc1` [Example 20-8], the IC50 is less than 100 nM.

With `O=C(CN1C(=O)NC2(CCC(F)(F)CC2)C1=O)c1ccc(Sc2ccccc2)nc1` [Example 20-9], the IC50 is less than 500 nM.

On to `N#Cc1cccnc1Oc1ccc(C(=O)CN2C(=O)NC3(CCC(F)(F)CC3)C2=O)cc1` [Example 21-1, 2-(4-(2-(8,8-difluoro-2,4-dioxo-1,3-diazaspiro[4.5]decan-3-yl)acetyl)phenoxy)nicotinonitrile], for which the IC50 is less than 100 nM.

As for `O=C(CN1C(=O)NC2(CCC(F)(F)CC2)C1=O)c1ccc(Oc2ncccc2Cl)cc1` [Example 21-2, 3-(2-(4-((3-chloropyridin-2-yl)oxy)phenyl)-2-oxoethyl)-8,8-difluoro-1,3-diazaspiro[4.5]decane-2,4-dione], the IC50 is less than 100 nM.

With `Cc1cccnc1Oc1ccc(C(=O)CN2C(=O)NC3(CCC(F)(F)CC3)C2=O)cc1` [Example 21-3], the IC50 was less than 500 nM.

As for `Cc1ccnc(Oc2ccc(C(=O)CN3C(=O)NC4(CCC(F)(F)CC4)C3=O)cc2)c1` [Example 21-4], the IC50 is less than 500 nM.

Consider `N#Cc1cccc(Oc2ccc(C(=O)CN3C(=O)NC4(CCC(F)(F)CC4)C3=O)cc2)n1` [Example 21-5], for which the 50% inhibitory concentration (IC50) was less than 100 nM.

`Cc1cccc(Oc2ccc(C(=O)CN3C(=O)NC4(CCC(F)(F)CC4)C3=O)cc2)n1` [Example 21-6]: the half-inhibitory concentration (IC50) is less than 500 nM.

As for `Cc1ccnc(Oc2ccc(C(=O)CN3C(=O)NC4(CCC(F)(F)CC4)C3=O)cc2)n1` [Example 21-7], the half-inhibitory concentration (IC50) is less than 500 nM.

As for `N#Cc1nccnc1Oc1ccc(C(=O)CN2C(=O)NC3(CCC(F)(F)CC3)C2=O)cc1` [Example 21-8], the IC50 is less than 100 nM.

`Cc1ccnnc1Oc1ccc(C(=O)CN2C(=O)NC3(CCC(F)(F)CC3)C2=O)cc1` [Example 21-11, 8,8-difluoro-3-(2-(4-((4-methylpyridazin-3-yl)oxy)phenyl)-2-oxoethyl)-1,3-diazaspiro[4.5]decane-2,4-dione]: the half-inhibitory concentration (IC50) was less than 500 nM.

A word on the IC50: it is the concentration that inhibits the measured activity by half.
